{"source": "patent USRE47475E1", "about": "“Selective agents for pain suppression” (WiSys Technology Foundation, Inc., priority 2002, dated 2019)", "key": {"[1]": {"test_system": "thermal hyperalgesia after CCI of the sciatic nerve", "assay": "chronic constriction injury (CCI) model, heat hyperalgesia (plantar test)", "type": "in vivo, mice", "conditions": "16 mg/kg i.p.", "description": "(§1) In addition, the pro- or antinociceptive effects of the compounds of the present invention are analyzed in the chronic constriction injury (CCI) model. The GABAA receptor subunit selective test compounds of the present invention are analysed in the CCI model in 7-8-week-old C57BL/6 mice. See Bennett, G. J. & Xie, Y. K. A peripheral mononeuropathy in rat that produces disorders of pain sensation like those seen in man. […] Seven to eight week old mice are anesthetized with isofluran. Unilateral constriction injury of the left sciatic nerve just proximal to the trifurcation is performed with three loose ligatures. […] Heat hyperalgesia, cold allodynia and mechanical sensitization are assessed 7-9 days after surgery. Mechanical sensitivity is assessed with electronic von Frey filaments (IITC).\nHeat hyperalgesia is assessed by measuring paw withdrawal latencies on exposure to a defined radiant heat stimulus are measured with a commercially available apparatus (Plantar Test; Ugo Basile). […]\nPain studies—Neuropathic pain: HZ166 and gabapentin were analyzed in the chronic constriction injury (CCI) model. […] Heat hyperalgesia and mechanical sensitization were assessed 7-16 days after surgery.\nPain Studies—Heat hyperalgesia: Paw withdrawal latencies upon exposure to a defined radiant heat stimulus were measured using a commercially available apparatus (Plantar Test, Ugo Basile, Comerio, Italy). […]"}, "[2]": {"test_system": "neuropathic pain after CCI of the sciatic nerve", "assay": "chronic constriction injury (CCI) model, mechanical sensitization (von Frey filaments)", "type": "in vivo, mice", "description": "as §1, with “ligatures. In sham-operated animals the sciatic nerve is exposed and the connective tissue is freed, but no ligatures are applied.” for “ligatures.”\nPain studies—Neuropathic pain: HZ166 and gabapentin were analyzed in the chronic constriction injury (CCI) model. Unilateral constriction injury of the left sciatic nerve just proximal to the trifurcation was performed as described previously (Bennett and Xie, 1988). Anesthesia was induced and maintained by 2% isoflurane, combined with oxygen (30%). The sciatic nerve was exposed at the mid-thigh level proximal to the sciatic trifurcation by blunt dissection through the biceps femoris muscle. […] of nerve were freed of adhering tissue and three chromic gut ligatures (4/0) (Ethicon) were loosely put around the nerve with about 1 mm spacing. The ligatures were tied until they elicited a brief twitch in the hindlimb. The surgical wound was closed in layers. Heat hyperalgesia and mechanical sensitization were assessed 7-16 days after surgery.\nPain Studies—Mechanical sensitization: Mechanical sensitivity was assessed with dynamic von Frey filaments (IITC, Woodland Hills, Calif.). 4-5 measurements were made for each time point and animal and averaged. Measurements of paw withdrawal thresholds of the injured paw and of the contralateral paw were made alternately.\nStatistical Analysis: For all different doses and vehicle, baseline paw withdrawal thresholds/latencies on day 7 after nerve ligation or on day 2 after zymosan A injection were subtracted from all later withdrawal thresholds and the area under the curve (AUC) was calculated. Drug effects were expressed as percent maximum possible effect (MPE) calculated from comparisons of paw withdrawal latencies or thresholds obtained prior to surgery or inflammation and before and after drug treatment. […] Unless otherwise indicated, statistical comparisons were made with one-way analysis of variance (ANOVA) followed by Scheffe's post hoc test. P values<0.05 were considered significant."}, "[3]": {"conditions": "mice and rats after intraperitoneal (i.p.) application; Rivas et al., 2009; cited from earlier work"}, "seizures": {"test_system": "seizures", "conditions": "Rivas et al., 2009, cited from earlier work"}, "Cyp": {"test_system": "Cyp", "assay": "Cyp profile"}, "rhesus monkeys": {"test_system": "rhesus monkeys", "assay": "conflict model of anxiolytic activity which also measures sedation", "type": "in vivo", "description": "The data in FIGS. 21A-21F reflect the ability of the compounds or drugs to exert an anxioyic effect in rhesus monkeys (J. Rowlett, J. M. Cook et al., unpublished results) when given intravenously in propylene glycol/water solution. This is the conflict model of anxiolytic activity which also measures sedation. […] In FIG. 21B, SH-053-2′F (JY-XHE-053) is anxiolytic at a dose of greater than 0.13 mg/kg, but exerts only some slight sedation at doses greater than 1.2 mg/kg (responses decrease). In FIG. 21C it is clear the S-enantiomer of SH-053-2′F—S—CH3 is anxiolytic with no sedation up to 10-18 mg/kg, which is the highest dose tested."}}, "data": [{"smiles": "C#Cc1ccc2c(c1)C(c1ccccn1)=NCc1c(C(=O)OCC)ncn1-2", "note": "[HZ-166, 8-Acetylenyl-6-pyridin-2-yl-4H-benzo[f]imidazo[1,5-a][1,4]diazepine-3-carboxylic acid ethyl ester]", "values": [{"measurement": "time of peak effect on PWLs after administration", "setting": "[1]", "value": 1, "unit": "h"}, {"measurement": "AUC of PWL, injured paw", "setting": "[1]; 7 days after surgery, n=6", "value": "4.33±1.95", "unit": "s*h"}, {"measurement": "analgesia, mechanical sensitivity (von Frey) in CCI model", "setting": "[2]; 48 mg/kg, 160 mg/kg and 480 mg/kg i.p.", "value": "significant analgesia"}, {"measurement": "AUC of mechanical PWT, HZ166 followed by vehicle", "setting": "[2]; HZ166 16 mg/kg i.p., vehicle 45 min later, n=6", "value": "1.90 ± 0.29", "unit": "g·h"}, {"measurement": "ED50", "setting": "[2]; Mus musculus, ip, 168 h, i.p., day 7 after CCI surgery, Hill fit, read-out: ED50, increase of ipsilateral PWT", "value": "3.83 ± 0.94", "unit": "mg/kg"}, {"measurement": "reversal of mechanical hypersensitivity", "setting": "[2]; i.p., CCI model", "value": "dose-dependent reversal"}, {"measurement": "PWTs of the contralateral paw", "setting": "[2]; i.p., day 7 after CCI surgery", "value": "not affected"}, {"measurement": "time of maximum effect on ipsilateral PWT after injection", "setting": "[2]; i.p., day 7 after CCI surgery", "value": "about 1 h"}, {"measurement": "doses at which saturation of the antihyperalgesic effect was reached", "setting": "[2]; i.p., mechanical PWT", "value": "≥ 160", "unit": "mg/kg"}, {"measurement": "doses with statistically significant antihyperalgesic effects", "setting": "[2]; i.p., mechanical PWT", "value": "≥ 16", "unit": "mg/kg"}, {"measurement": "analgesic effects in the chronic constriction injury model of neuropathic pain", "setting": "[2]; mouse, in vivo", "value": "analgesic effects"}, {"measurement": "pharmacokinetics", "setting": "[3]", "value": "suitable"}, {"measurement": "toxicity", "setting": "seizures", "value": "minimal"}, {"measurement": "anticonvulsive activity", "setting": "seizures; at non-sedative doses", "value": "good anticonvulsive activity"}, {"measurement": "Cyp profile", "setting": "Cyp", "value": "good"}, {"measurement": "no sedation up to dose", "setting": "rhesus monkeys; conflict model", "value": "up to 10 mg/kg"}, {"measurement": "sedative activity (conflict model)", "setting": "rhesus monkeys; intravenously", "value": "no sedative activity"}, {"measurement": "anxiolytic effect (conflict model)", "setting": "rhesus monkeys; intravenously in propylene glycol/water", "value": "anxiolytic"}]}]}
